In patent US9062071B2, “Substituted piperidines as HDM2 inhibitors” (Merck Sharp & Dohme Corp, priority 2011, dated 2015):

Molecular target: HDM2 protein (Homo sapiens, UniProt Q00987)
Assay: fluorescence polarization screening assay (FP IC50)
Type: binding
Conditions: class symbols
Protocol: The compounds were evaluated to determine activity at the HDM2 protein by known methods such as the fluorescence polarization screening assay that measures the inhibitory concentration that achieves 50% of maximal activity (FP IC50) and the dissociation constant for inhibitor binding (FP Ki). [Zhang et al., J. Analytical Biochemistry 331: 138-146 (2004)].

Sequence of HDM2 protein (Q00987 whole entry): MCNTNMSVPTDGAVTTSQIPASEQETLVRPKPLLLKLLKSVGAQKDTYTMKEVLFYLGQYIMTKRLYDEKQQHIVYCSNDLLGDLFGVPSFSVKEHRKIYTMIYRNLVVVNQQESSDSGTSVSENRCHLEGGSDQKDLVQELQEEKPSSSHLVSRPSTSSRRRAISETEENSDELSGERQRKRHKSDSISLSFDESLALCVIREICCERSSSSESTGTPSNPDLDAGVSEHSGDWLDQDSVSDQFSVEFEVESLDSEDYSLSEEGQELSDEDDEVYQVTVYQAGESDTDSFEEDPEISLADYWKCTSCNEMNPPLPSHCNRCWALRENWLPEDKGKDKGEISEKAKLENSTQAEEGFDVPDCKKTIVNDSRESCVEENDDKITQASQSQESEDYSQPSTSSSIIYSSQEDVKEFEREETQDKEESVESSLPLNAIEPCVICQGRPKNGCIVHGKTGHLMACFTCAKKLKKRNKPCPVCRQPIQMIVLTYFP

Row | Compound | IC50
1 | CCC[C@H]1N(C(=O)c2ncccc2C(F)(F)F)CCC[C@@]1(Oc1csc(C(F)(F)F)c1)C(=O)N1CCc2cc(Cl)ccc2C1CC(C(=O)O)C(C)C (stereo partly drawn) [Compound A178, 2-[(6-chloro-2-{[(2R,3S)-2-propyl-1-{[3-(trifluoromethyl)pyridin-2-yl]carbonyl}-3-{[5-(trifluoromethyl)thiophen-3-yl]oxy}piperidin-3-yl]carbonyl}-1,2,3,4-tetrahydroisoquinolin-1-yl)methyl]-3-methylbutanoic acid] | 1 to 100 nM
2 | CCC[C@H]1N(C(=O)c2ncccc2C(F)(F)F)CCC[C@@]1(Oc1csc(C(F)(F)F)c1)C(=O)N1CCc2cc(Cl)ccc2C1CC(C(=O)O)C(C)C (stereo partly drawn) [Compound A179, 2-[(6-chloro-2-{[(2R,3S)-2-propyl-1-{[3-(trifluoromethyl)pyridin-2-yl]carbonyl}-3-{[5-(trifluoromethyl)thiophen-3-yl]oxy}piperidin-3-yl]carbonyl}-1,2,3,4-tetrahydroisoquinolin-1-yl)methyl]-3-methylbutanoic acid] | 1 to 100 nM
3 | CCC[C@H]1N(C(=O)c2ncccc2C(F)(F)F)CCC[C@@]1(Oc1csc(C(F)(F)F)c1)C(=O)N1CCc2cc(Cl)ccc2C1CC(C(=O)O)C(C)C (stereo partly drawn) [Compound A180, 2-[(6-chloro-2-{[(2R,3S)-2-propyl-1-{[3-(trifluoromethyl)pyridin-2-yl]carbonyl}-3-{[5-(trifluoromethyl)thiophen-3-yl]oxy}piperidin-3-yl]carbonyl}-1,2,3,4-tetrahydroisoquinolin-1-yl)methyl]-3-methylbutanoic acid] | 101 to 20000 nM
4 | CCC[C@H]1N(C(=O)c2ncccc2C(F)(F)F)CCC[C@@]1(Oc1csc(C(F)(F)F)c1)C(=O)N1CCc2cc(Cl)ccc2C1COCC(=O)O (stereo partly drawn) [Compound A181, [(6-chloro-2-{[(2R,3S)-2-propyl-1-{[3-(trifluoromethyl)pyridin-2-yl]carbonyl}-3-{[5-(trifluoromethyl)thiophen-3-yl]oxy}piperidin-3-yl]carbonyl}-1,2,3,4-tetrahydroisoquinolin-1-yl)methoxy]acetic acid] | 1 to 100 nM
